Laboratory results published in patent publication US12497392B2, “EP300/CBP inhibitor” (HINOVA PHARMACEUTICALS INC., priority 2019, dated 2025).
Read-outs that look alike come from different tables or passages of the source.

Assays:
CBP BRD = CBP BRD (Homo sapiens (Human), UniProt Q92793); assay: CBP AlphaScreen bromodomain (BRD) binding test
Method: (§1) CBP and EP300AlphaScreen Test:
(§2) • 1. Prepare 1× concentration of test buffer • 2. Preparation of compound
(§3) The compound was firstly diluted in a ratio of 1:1000 relative to the final concentration using a Precision automatic sampler (by 3× gradient dilution method): • 1) 50 μL of compound solution with a storage concentration of 10 mM was transferred to A2 well of a 96-well plate using an Echo automatic sampler. • 2) 30 μL of DMSO was transferred to well A1, and wells A3 to A12 with Precision™. • 3) 15 μL solution was transferred from A2 to A3 by Precision, and this operation was sequentially repeated until 15 μL solution was transferred from well A10 to well A11. Thus, a 1:3 gradient dilution was completed. • 4) The compound plate was centrifuged at a speed of 1000 r/min for one minute. • 3. Preparation of test plate
(§4) 20 nL of solution was transferred from each concentration well of the compound plate to the test plate using an Echo automatic sampler: from well A1 of the preparation plate to wells A1 and A2 of the test plate, and from well A2 of the preparation plate to wells A3 and A4 of the test plate. • 4. Binding test of bromodomain (BRD) • 1) Preparation of 2-fold solution of protein and polypeptide
(§5) The protein and polypeptide were dissolved in a 1× concentration of detection buffer. • 2) 10 μL of protein and polypeptide solution was transferred to each well in columns 3 to 24 in the test plate, and 10 μL of 1× test buffer was transferred to wells in columns 1 to 2 in the test plate as negative control. • 3) The test plate was centrifuged at a speed of 1000 r/min for one minute. • 4) The test plate was incubated at room temperature for 15 min. • 5) A 2-fold receptor and donor solution was prepared by dissolving acceptor and donor beads with one-fold test buffer. • 6) 2-fold receptor and donor solutions were transferred to the test plate.
(§6) 15 μL of acceptor and donor solution was added and light was avoided. • 7) The test plate was centrifuged at a speed of 1000 r/min for one minute and then incubated at room temperature for 60 min. • 5. The Endpoints were Read in EnSpire and Alpha Modes. • 6. Curve fitting
(§7) The experimental data was entered into an Excel document and the inhibition rate Inh % was calculated using equation (1): Inh %=(Max−Signal)/(Max−Min)×100 Equation (1): wherein, Max: control containing DMSO, Min: low control containing DMSO,
(§8) The obtained data were entered into the XL-Fit software, and the IC50 value was calculated using equation (2): Y=Bottom+(Top−Bottom)/(1+10^((Log IC50−X)×Hill Slope)) Equation (2): II. Experimental Results

CWR22RV1 cells [1] = assay: Proliferation of prostate cancer CWR22RV1 cells (CCK-8, 6 days); assay type: cell-based
Method: (§9) • (1) CWR22RV1 prostate cancer cells were subcultured in cell culture medium, and well-grown cells were inoculated into 96-well plates with 80 μL per well and 1500 cells per well, and then the plate was cultured overnight at 37° C. in a 5% CO2 incubator. • (2) Drug was prepared as 30 mM of stock solution with dimethylsulfoxide (DMSO). Prior to use, the stock solution was diluted in a ratio of 1:3 with DMSO and then further diluted in a ratio of 1:3 to obtain 9 gradient concentrations. Each concentration of compound was diluted in a ratio of 1:200 with culture medium (to ensure the concentration of DMSO in the culture system was 0.1%). Two wells were set for each concentration. 20 μL of diluted compound solution was added to the cell culture well (with a final concentration of 10 μM, 3.3 μM, 1.1 μM, etc.), and then the plate was gently shaken to mix well. In addition, three negative control wells containing only cells and three blank control wells containing only culture medium (6 wells being each added with DMSO diluted in a ratio of 1:200 using 20 μL of culture medium) were included. 2. Test Results: • (1) After the plate was cultured for 6 days, 10 μL of CCK-8 was added to each well, and then the plate was continually cultured in a 5% CO2 incubator at 37° C. for 2.5 h. • (2) The absorbance (OD value) was measured at 450 nm with a microplate reader. • (3) Data were analyzed using the Dose-response-inhibition equation in the software GraphPad Prisms 6 to obtain IC50 values. 3. Experimental Results

EP300 BRD = EP300 BRD (Homo sapiens (Human), UniProt Q09472); assay: EP300 AlphaScreen bromodomain (BRD) binding test
Sequence of EP300 BRD (Q09472 1049-1156): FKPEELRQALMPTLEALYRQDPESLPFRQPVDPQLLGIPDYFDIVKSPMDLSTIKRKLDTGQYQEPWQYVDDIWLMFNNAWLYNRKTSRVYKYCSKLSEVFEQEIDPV
Method: as §1, §2, §3, §4, §5, §6, §7, §8

VCAP = assay: Proliferation of VCAP prostate cancer cells (CCK-8); assay type: cell-based; details: prostate cancer cell line VCAP, read-out: IC50 against VCAP
Method: as §9
(§10) Using the same method as in Example 2, CWR22RV1 cells were replaced with tumor cells in Table 3, and for the inhibitory activities against these tumor cells, the IC50 values (nM) of the compounds according to the present invention were tested and calculated.

LNCAP-AR = assay: Proliferation of LNCAP-AR prostate cancer cells (CCK-8); assay type: cell-based; details: prostate cancer cell line LNCAP-AR; read-out: IC50 against LNCAP-AR
Method: as §9, §10

OPM-2 = assay: Proliferation of OPM-2 multiple myeloma cells (CCK-8); assay type: cell-based; details: multiple myeloma cell line OPM-2, read-out: IC50 against OPM-2
Method: as §9, §10

LNCAP = assay: Proliferation of LNCAP prostate cancer cells (CCK-8); assay type: cell-based; details: prostate cancer cell line LNCAP, read-out: IC50 against LNCAP
Method: as §9, §10

MCF-7 = assay: Proliferation of MCF-7 breast cancer cells (CCK-8); assay type: cell-based; details: breast cancer cell line MCF-7, read-out: IC50 against MCF-7
Method: as §9, §10

MOLM-16 = assay: Proliferation of MOLM-16 leukemia cells (CCK-8); assay type: cell-based; details: leukemia cell line MOLM-16, read-out: IC50 against MOLM-16
Method: as §9, §10

CWR22RV1 cells [2] = assay: Combination with CDK4/6 inhibitor palbociclib, proliferation of CWR22RV1 prostate cancer cells; assay type: cell-based; details: for IC50: read-out: IC50 against CWR22RV1 cells
Method: (§11) Prior to use, the stock solution was diluted in a ratio of 1:3 with DMSO and then further diluted in a ratio of 1:3 to obtain 9 gradient concentrations. Each concentration of compound was diluted in a ratio of 1:200 with culture medium (to ensure the concentration of DMSO in the culture system was 0.1%). Two wells were set for each concentration. 20 μL of diluted compound solution was added to the cell culture well (with a final concentration of 10 μM, 3.3 μM, 1.1 μM, etc.); the stock solution of palbociclib was diluted with the culture medium as 500 nM, 150 nM, 50 nM, 5 nM, respectively, and then 20 μL of diluted palbociclib solution was added to the cell culture well ([…]). The plate was gently shaken to mix well. In addition, three negative control wells containing only cells and three blank control wells containing only culture medium (6 wells being each added with DMSO diluted in a ratio of 1:200 using 20 μL of culture medium) were included. 2. Test Results: • (1) After the plate was cultured for 6 days, 10 μL of CCK-8 was added to each well, and then the plate was continually cultured in a 5% CO2 incubator at 37° C. for 2.5 h. • (2) The absorbance (OD value) was measured at 450 nm with a microplate reader. • (3) Data were analyzed using the Dose-response-inhibition equation in the software GraphPad Prisms 6 to obtain IC50 values. 3. Experimental Results

MCF-7 cells = assay: Combination with CDK4/6 inhibitor palbociclib, proliferation of MCF-7 breast cancer cells; assay type: cell-based; details: for IC50: Homo sapiens, read-out: IC50 against MCF-7 cells
Method: as §11
Using the same method as in Example 4, CWR22RV1 cells were replaced with MCF-7 cells, and for the inhibitory activities against the proliferation of MCF-7 cells, the IC50 values (nM) of the compounds according to the present invention, palbociclib, and the combination of the compound according to the present invention and palbociclib were tested and calculated.

[3] = CWR22Rv1, 144 h, 6 days, CCK-8, class symbols, read-out: IC50 against CWR22RV1 cells
[4] = compound 172 + palbociclib, in words

Sequence of CBP BRD (Q92793 1085-1192): as the sequence (Q09472 1049-1156) above, with S47N, I73V, Y93F, S98A counted along it

CO[C@H]1CC[C@H](n2c([C@@H]3CCOCC(=O)N3c3ccc(F)c(F)c3)nc3cc(-c4c(C)noc4C)ccc32)CC1 [Compound 106]
IC50 (CBP BRD): 4.8 nM | IC50 (CWR22RV1 cells [1]; [3]): 500 to 2000 nM | IC50 (EP300 BRD): 2.2 nM

CO[C@H]1CC[C@H](n2c([C@H]3COCC(=O)N3c3ccc(F)c(F)c3)nc3cc(-c4c(C)noc4C)ccc32)CC1 [Compound 112, (S)-4-(3,4-difluorophenyl)-5-(5-(3,5-dimethylisoxazol-4-yl)-1-((trans)-4-methoxycyclohexyl)-1H-benzo[d]imidazol-2-yl)morphine-3-one]
IC50 (CBP BRD): 2 nM | IC50 (CWR22RV1 cells [1]; CWR22Rv1, 144 h, read-out: IC50 against CWR22RV1 cells): < 500 nM | IC50 (CWR22RV1 cells [1]; CWR22Rv1, 144 h, read-out: IC50 against CWR22RV1 prostate cancer cells): < 500 nM | IC50 (EP300 BRD): 1.7 nM

CO[C@H]1CC[C@H](n2c([C@@H]3CCOC(=O)N3c3ccc(Cl)c(F)c3)nc3cc(-c4c(C)noc4C)ccc32)CC1 [Compound 117, (S)-3-(3-fluoro-4-chlorophenyl)-4-(5-(3,5-dimethylisoxazol-4-yl)-1-((trans)-4-methoxycyclohexyl)-1H-benzo[d]imidazol-2-yl)-1,3-oxazinane-2-one]
IC50 (VCAP; Homo sapiens): < 500 nM | IC50 (LNCAP-AR): < 500 nM | IC50 (OPM-2; Homo sapiens): < 500 nM | IC50 (CBP BRD): 0.71 nM | IC50 (LNCAP; Homo sapiens): < 500 nM | IC50 (CWR22RV1 cells [1]; CWR22Rv1, 144 h, 6 days, CCK-8, bound stated, read-out: IC50 against CWR22RV1 prostate cancer cells): < 500 nM | IC50 (CWR22RV1 cells [1]; [3]): < 500 nM | IC50 (MCF-7; Homo sapiens, MCF7): < 500 nM | IC50 (MOLM-16; MOLM16): < 500 nM | IC50 (EP300 BRD): 0.73 nM

COc1cccc(-c2nc3cc(-c4c(C)noc4C)ccc3n2[C@H]2CC[C@H](OC)CC2)c1-c1ccc(F)cc1 [Compound 141]
IC50 (CBP BRD): 22 nM | IC50 (CWR22RV1 cells [1]; [3]): > 2000 nM | IC50 (EP300 BRD): 9.6 nM

CO[C@H]1C[C@@H](n2c([C@@H]3CCOC(=O)N3c3ccc(F)c(F)c3)nc3cc(-c4c(C)noc4C)ccc32)C1 [Compound 143]
IC50 (CBP BRD): 4.7 nM | IC50 (CWR22RV1 cells [1]; [3]): 500 to 2000 nM | IC50 (EP300 BRD): 2.7 nM

CCO[C@H]1CC[C@H](n2c([C@@H]3CCOC(=O)N3c3ccc(F)c(F)c3)nc3cc(-c4c(C)noc4C)ccc32)CC1 [Compound 171, (S)-3-(3,4-difluorophenyl)-4-(5-(3,5-dimethylisoxazol-4-yl)-1-((trans)-4-ethoxycyclohexyl)-1H-benzo[d]imidazol-2-yl)-1,3-oxazinane-2-one]
IC50 (VCAP; Homo sapiens): < 500 nM | IC50 (LNCAP-AR): < 500 nM | IC50 (OPM-2; Homo sapiens): < 500 nM | IC50 (CBP BRD): 1.8 nM | IC50 (LNCAP; Homo sapiens): < 500 nM | IC50 (CWR22RV1 cells [1]; [3]): 500 to 2000 nM | IC50 (MCF-7; Homo sapiens, MCF7): < 500 nM | IC50 (MOLM-16; MOLM16): < 500 nM | IC50 (EP300 BRD): 2.4 nM

CCO[C@H]1CC[C@H](n2c([C@@H]3CCOC(=O)N3c3ccc(Cl)c(F)c3)nc3cc(-c4c(C)noc4C)ccc32)CC1 [Compound 172, (S)-3-(4-chloro-3-fluorophenyl)-4-(5-(3,5-dimethylisoxazol-4-yl)-1-((trans)-4-ethoxycyclohexyl)-1H-benzo[d]imidazol-2-yl)-1,3-oxazinane-2-one]
IC50 (VCAP; Homo sapiens): < 500 nM | IC50 (LNCAP-AR): < 500 nM | IC50 (OPM-2; Homo sapiens): < 500 nM | IC50 (CBP BRD): 2.3 nM | IC50 (CWR22RV1 cells [2]; CWR22Rv1, 172 in combination with 10 nM palbociclib): 26 nM | IC50 (CWR22RV1 cells [2]; CWR22Rv1, 172 in combination with 100 nM palbociclib): < 1 nM | IC50 (CWR22RV1 cells [2]; CWR22Rv1, 172 in combination with 100-300 nM of palbociclib): < 1 nM | IC50 (CWR22RV1 cells [2]; CWR22Rv1, administrated alone): 1500 nM | effect of combination with palbociclib on CWR22RV1 prostate cancer cells (CWR22RV1 cells [2]; [4]): synergistic inhibitory effect | IC50 (LNCAP; Homo sapiens): < 500 nM | IC50 (MCF-7 cells; MCF7, 172 in combination with 10 nM palbociclib): 27 nM | IC50 (MCF-7 cells; MCF7, 172 in combination with 100 nM palbociclib): 9 nM | IC50 (MCF-7 cells; MCF7, 172 in combination with 300 nM palbociclib): 7 nM | IC50 (MCF-7 cells; MCF7, 172 in combination with 100-300 nM of palbociclib): < 10 nM | IC50 (MCF-7 cells; MCF7, administrated alone): 72 nM | effect of combination with palbociclib on MCF-7 breast cancer cells (MCF-7 cells; [4]): synergistic inhibitory effect | IC50 (CWR22RV1 cells [1]; [3]): 500 to 2000 nM | IC50 (MCF-7; Homo sapiens, MCF7): < 500 nM | IC50 (MOLM-16; MOLM16): < 500 nM | IC50 (EP300 BRD): 2.1 nM

CC(=O)c1c(C)c2cnc(Nc3ccc(N4CCNCC4)cn3)nc2n(C2CCCC2)c1=O [palbociclib, reference compound]
IC50 (CWR22RV1 cells [2]; CWR22Rv1, administrated alone): 100 nM | IC50 (MCF-7 cells; MCF7, administrated alone): 12800 nM

(S)-4-(3,4-difluorophenyl)-5-(5-(3,5-dimethylisoxazol-4-yl)-1-((trans)-4-deuteromethoxycyclohexyl)-1H-benzo[d]imidazol-2-yl)morphine-3-one [Compound 113]
IC50 (VCAP): < 500 nM | IC50 (LNCAP-AR): < 500 nM | IC50 (OPM-2): < 500 nM | IC50 (LNCAP): < 500 nM | IC50 (CWR22RV1 cells [1]; 6 days, CCK-8, bound stated, read-out: IC50 against CWR22RV1 prostate cancer cells): < 500 nM | IC50 (CWR22RV1 cells [1]; 6 days, CCK-8, class symbols, read-out: IC50 against CWR22RV1 cells): < 500 nM | IC50 (MCF-7): < 500 nM | IC50 (MOLM-16): < 500 nM
